Publication PMC10641818, “Development of First-in-Class Dual Sirt2/HDAC6 Inhibitors as Molecular Tools for Dual Inhibition of Tubulin Deacetylation” (Journal of Medicinal Chemistry, 2023)

How the values were obtained:
Type in all cases: biochemical
HDAC2 = target: T1, HDAC2 (Homo sapiens, UniProt Q92769); experiment: HDAC2 in vitro deacetylation assay (ZMAL); conditions: mean ± SD
T1 construct: purchased BPS Bioscience 50052

HDAC9 = HDAC9 (Homo sapiens, UniProt Q9UKV0); experiment: HDAC9 continuous fluorescence deacylation assay
Sirt6 = Sirt6 (Homo sapiens, UniProt Q8N6T7); experiment: Sirt6 in vitro deacylation HPLC assay
HDAC8 = HDAC8 (Homo sapiens, UniProt Q9BY41); experiment: HDAC8 in vitro deacylation assay (ZMTFAL)
Sirt2 (demyristoylation) = Sirt2 (demyristoylation) (Homo sapiens, UniProt Q8IXJ6); experiment: Continuous Sirt2 demyristoylation assay (myristoylated peptide substrate); conditions: peptide-based myristoylated substrate, triplicate; read-out: Sirt2-mediated demyristoylation IC50
Description: As a second method to confirm the inhibition of Sirt2-mediated demyristoylation by 33, we used a continuous Sirt2 demyristoylation assay as reported by Zessin et al.[48] In brief, this assay was performed in a black 384-well fluorescence plate in a total volume of 40 μL of Sirt assay buffer (20 mM Tris-HCl, 150 mM NaCl, 5 mg/mL MgCl2, 2 mg/mL BSA, pH 7.8). Dilution series of the inhibitor was done in DMSO. A total of 2 μL of the inhibitor dilutions were incubated with 14 μL of the peptide substrate, referred to as F4 in Zessin et al.[48] (final concentration 40 nM) and 14 μL of Sirt2 solution (final concentration 1 nM) for 5 min at room temperature. In addition to the inhibitor-containing samples, a sample without inhibitors was measured as a positive control, and a sample without enzymes was measured as a negative control. The DMSO concentration was set to 5% (v/v). The reaction was started by the addition of 10 μL of NAD^+ (final concentration 500 μM). The product formation was monitored by the change in fluorescence intensity, and the reaction rate represented the activity. Fluorescence readout was performed with a BMG Fluostar Omega plate reader at following wavelengths: Excitation wavelength: λEx = 485 ± 10 nm, emission wavelength: λEm = 530 ± 10 nm. Inhibition was calculated using the following equation: [drawing 1] […]

HDAC10 = target: T2, HDAC10 (Homo sapiens, UniProt Q969S8); experiment: HDAC10 continuous fluorescence deacylation assay
T2 sequence (Q969S8 1-669): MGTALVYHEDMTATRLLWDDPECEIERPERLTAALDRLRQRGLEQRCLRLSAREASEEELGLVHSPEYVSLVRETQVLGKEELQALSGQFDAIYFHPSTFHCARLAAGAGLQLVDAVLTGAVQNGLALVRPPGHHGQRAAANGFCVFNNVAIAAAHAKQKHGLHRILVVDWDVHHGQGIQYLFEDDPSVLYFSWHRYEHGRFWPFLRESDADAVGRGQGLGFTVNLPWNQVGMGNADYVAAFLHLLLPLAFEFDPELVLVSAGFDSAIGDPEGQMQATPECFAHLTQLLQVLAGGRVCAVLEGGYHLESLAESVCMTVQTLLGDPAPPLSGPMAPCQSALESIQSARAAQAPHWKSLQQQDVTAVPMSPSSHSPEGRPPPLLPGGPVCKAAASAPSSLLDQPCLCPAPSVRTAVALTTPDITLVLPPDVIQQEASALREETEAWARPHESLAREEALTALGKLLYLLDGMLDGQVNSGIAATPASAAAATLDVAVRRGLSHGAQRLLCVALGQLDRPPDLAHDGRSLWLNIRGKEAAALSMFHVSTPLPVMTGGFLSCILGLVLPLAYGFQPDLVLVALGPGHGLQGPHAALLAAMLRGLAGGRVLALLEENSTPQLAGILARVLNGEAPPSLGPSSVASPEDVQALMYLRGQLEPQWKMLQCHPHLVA

HDAC7 = target: T3, HDAC7 (Homo sapiens, UniProt Q8WUI4); experiment: HDAC7 continuous fluorescence deacylation assay
T3 sequence (Q8WUI4 1-952): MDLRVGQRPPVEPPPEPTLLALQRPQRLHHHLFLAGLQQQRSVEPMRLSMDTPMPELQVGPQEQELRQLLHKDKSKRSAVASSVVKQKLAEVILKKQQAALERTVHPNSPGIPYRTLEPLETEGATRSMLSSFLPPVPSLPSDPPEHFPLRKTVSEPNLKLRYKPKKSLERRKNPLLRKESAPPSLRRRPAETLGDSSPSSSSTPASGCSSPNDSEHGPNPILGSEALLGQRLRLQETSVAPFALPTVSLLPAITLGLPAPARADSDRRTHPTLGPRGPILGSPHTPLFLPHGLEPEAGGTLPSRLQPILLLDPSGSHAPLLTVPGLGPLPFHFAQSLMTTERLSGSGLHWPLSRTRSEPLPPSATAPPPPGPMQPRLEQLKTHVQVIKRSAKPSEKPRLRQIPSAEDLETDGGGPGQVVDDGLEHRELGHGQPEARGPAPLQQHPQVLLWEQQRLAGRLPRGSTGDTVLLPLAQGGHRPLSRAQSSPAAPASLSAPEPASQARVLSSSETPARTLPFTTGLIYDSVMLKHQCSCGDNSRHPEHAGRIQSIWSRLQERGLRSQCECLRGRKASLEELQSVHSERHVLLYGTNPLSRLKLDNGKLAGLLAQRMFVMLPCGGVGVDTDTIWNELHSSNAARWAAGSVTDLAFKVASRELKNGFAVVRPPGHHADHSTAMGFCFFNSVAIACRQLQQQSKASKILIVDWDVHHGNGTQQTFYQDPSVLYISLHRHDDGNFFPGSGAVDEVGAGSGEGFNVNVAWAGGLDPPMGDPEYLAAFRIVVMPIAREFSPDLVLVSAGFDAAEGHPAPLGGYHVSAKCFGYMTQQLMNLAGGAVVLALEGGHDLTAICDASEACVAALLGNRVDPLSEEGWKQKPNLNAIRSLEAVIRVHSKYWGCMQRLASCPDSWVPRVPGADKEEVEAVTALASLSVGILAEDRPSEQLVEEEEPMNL

HDAC3/NcoR2 = target: T4, HDAC3/NcoR2 (Homo sapiens, UniProt O15379); experiment: HDAC3 in vitro deacetylation assay (ZMAL); conditions: mean ± SD
T4 construct: purchased BPS Bioscience 50003
T4 sequence (O15379 whole entry): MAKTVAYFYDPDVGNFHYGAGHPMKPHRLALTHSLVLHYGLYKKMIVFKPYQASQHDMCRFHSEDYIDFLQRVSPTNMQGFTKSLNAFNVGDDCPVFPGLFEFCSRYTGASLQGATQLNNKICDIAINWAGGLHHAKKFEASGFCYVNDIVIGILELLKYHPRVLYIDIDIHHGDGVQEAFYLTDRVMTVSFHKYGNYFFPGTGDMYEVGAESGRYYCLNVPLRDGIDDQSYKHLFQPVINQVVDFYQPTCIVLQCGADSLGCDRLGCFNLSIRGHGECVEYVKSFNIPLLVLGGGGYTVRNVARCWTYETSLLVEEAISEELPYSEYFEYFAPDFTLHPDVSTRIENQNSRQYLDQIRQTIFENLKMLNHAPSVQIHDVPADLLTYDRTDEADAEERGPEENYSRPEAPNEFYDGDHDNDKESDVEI
T4 sequence (Q9Y618 395-489 partner limits assumed): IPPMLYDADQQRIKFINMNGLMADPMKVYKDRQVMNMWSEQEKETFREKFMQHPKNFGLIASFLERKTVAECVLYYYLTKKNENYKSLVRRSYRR

Sirt6, sequence (Q8N6T7 whole entry, species assumed): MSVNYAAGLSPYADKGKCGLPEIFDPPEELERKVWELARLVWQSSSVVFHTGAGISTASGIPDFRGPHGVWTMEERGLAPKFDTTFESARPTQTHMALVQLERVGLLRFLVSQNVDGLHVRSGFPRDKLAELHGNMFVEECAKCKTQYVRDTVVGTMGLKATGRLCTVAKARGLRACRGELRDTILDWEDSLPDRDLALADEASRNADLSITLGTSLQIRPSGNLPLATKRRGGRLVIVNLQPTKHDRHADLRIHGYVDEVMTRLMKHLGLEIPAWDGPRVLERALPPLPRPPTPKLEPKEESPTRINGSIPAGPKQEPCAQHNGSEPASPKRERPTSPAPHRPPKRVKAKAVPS
HDAC9, sequence (Q9UKV0 whole entry, species assumed): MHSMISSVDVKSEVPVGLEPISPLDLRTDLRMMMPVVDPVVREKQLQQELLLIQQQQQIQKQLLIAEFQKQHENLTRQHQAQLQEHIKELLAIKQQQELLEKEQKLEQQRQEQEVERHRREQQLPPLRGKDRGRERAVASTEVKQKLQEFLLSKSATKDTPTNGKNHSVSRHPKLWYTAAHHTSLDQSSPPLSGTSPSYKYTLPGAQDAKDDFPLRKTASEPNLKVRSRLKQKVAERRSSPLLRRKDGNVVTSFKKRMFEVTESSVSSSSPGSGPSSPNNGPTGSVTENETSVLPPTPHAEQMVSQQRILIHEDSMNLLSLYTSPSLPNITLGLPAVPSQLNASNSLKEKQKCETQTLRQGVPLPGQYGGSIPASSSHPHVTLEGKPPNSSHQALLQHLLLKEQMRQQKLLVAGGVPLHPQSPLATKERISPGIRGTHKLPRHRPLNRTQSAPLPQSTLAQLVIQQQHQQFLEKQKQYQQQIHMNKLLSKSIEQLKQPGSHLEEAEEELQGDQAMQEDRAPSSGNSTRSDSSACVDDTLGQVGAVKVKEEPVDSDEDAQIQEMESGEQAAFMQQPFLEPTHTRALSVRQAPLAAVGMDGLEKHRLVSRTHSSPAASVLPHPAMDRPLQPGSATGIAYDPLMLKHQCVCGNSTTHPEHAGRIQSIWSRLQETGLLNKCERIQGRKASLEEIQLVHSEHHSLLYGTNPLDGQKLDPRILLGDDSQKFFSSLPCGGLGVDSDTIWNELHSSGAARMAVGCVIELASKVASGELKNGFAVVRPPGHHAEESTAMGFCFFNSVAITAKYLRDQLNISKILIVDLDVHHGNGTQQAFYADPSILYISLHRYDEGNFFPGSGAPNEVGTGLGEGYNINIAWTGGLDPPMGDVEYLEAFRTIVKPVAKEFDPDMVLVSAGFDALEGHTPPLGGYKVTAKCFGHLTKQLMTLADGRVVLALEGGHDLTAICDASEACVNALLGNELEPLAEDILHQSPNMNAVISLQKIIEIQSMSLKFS
Sirt2 (demyristoylation), sequence (Q8IXJ6 whole entry): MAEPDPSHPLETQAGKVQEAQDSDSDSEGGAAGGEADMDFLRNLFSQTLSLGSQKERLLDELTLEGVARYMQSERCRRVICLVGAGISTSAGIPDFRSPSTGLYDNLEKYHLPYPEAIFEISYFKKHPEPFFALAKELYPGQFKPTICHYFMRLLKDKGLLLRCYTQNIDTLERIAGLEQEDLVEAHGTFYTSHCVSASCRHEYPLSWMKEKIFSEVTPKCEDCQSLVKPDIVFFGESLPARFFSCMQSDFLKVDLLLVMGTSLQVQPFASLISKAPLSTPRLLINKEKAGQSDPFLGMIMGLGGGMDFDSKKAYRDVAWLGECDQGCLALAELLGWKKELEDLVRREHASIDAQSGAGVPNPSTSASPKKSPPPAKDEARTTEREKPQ
T1 sequence (Q92769 whole entry): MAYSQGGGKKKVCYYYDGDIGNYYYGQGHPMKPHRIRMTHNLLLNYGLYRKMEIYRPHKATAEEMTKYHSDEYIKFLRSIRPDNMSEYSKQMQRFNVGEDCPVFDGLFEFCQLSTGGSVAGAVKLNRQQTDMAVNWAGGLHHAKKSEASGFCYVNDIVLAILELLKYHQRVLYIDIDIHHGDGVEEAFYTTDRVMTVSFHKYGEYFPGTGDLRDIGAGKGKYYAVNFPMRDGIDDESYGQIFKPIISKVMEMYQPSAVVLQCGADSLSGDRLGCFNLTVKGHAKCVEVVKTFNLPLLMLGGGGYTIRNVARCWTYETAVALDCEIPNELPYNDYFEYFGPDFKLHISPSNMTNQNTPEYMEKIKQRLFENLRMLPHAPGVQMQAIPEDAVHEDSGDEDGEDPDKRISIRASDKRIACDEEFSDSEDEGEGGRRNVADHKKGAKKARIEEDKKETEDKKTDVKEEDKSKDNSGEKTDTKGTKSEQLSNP
HDAC8, sequence (Q9BY41 whole entry, species assumed): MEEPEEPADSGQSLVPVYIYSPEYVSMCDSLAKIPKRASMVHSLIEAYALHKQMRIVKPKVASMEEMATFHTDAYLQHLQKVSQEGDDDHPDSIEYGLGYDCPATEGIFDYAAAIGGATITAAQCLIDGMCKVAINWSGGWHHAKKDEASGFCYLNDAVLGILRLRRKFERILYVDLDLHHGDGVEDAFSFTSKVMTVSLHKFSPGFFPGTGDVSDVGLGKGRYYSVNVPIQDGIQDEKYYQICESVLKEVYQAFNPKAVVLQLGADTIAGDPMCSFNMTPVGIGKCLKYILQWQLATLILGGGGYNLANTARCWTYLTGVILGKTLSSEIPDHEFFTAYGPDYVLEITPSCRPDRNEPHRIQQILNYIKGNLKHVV

- IC50 (HDAC2): 6 ± 0.2 µM
- IC50 (HDAC9): > 20 µM
- inhibition at 6 µM (HDAC9; @ 6 µM, read-out: HDAC9 percentual inhibition): 17%
- inhibition at 20 µM (HDAC9; @ 20 μM, read-out: HDAC9 percentual inhibition): 37%
- IC50 (Sirt6): > 500 µM
- inhibition at 200 µM (Sirt6; @ 200 µM, read-out: Sirt6 percentual inhibition): 0%
- inhibition at 500 µM (Sirt6; @ 500 µM, read-out: Sirt6 percentual inhibition): 10%
- IC50 (HDAC8): 2.94 ± 0.45 µM
- IC50 (Sirt2 (demyristoylation)): 0.88 ± 0.09 µM
- IC50 (HDAC10): > 6 µM
- inhibition at 6 µM (HDAC10; @ 6 µM, read-out: HDAC10 percentual inhibition): 27%
- inhibition at 20 µM (HDAC10; @ 20 μM, read-out: HDAC10 percentual inhibition): 64%
- IC50 (HDAC7): > 6 µM
- inhibition at 6 µM (HDAC7; @ 6 µM, read-out: HDAC7 percentual inhibition): 29%
- inhibition at 20 µM (HDAC7; @ 20 μM, read-out: HDAC7 percentual inhibition): 57%
- IC50 (HDAC3/NcoR2): 2.5 ± 0.2 µM
SMILES: CCCCN(Cc1ccc(C(=O)NO)cc1)C(=O)CCCCn1cc(COc2cccc(Cc3cnc(NC(=O)CSc4nc(C)cc(C)n4)s3)c2)nn1 [Compound 33, 4-((N-Butyl-5-(4-((3-((2-(2-((4,6-dimethylpyrimidin-2-yl)thio)acetamido)thiazol-5-yl)methyl)phenoxy)methyl)-1H-1,2,3-triazol-1-yl)pentanamido)methyl)-N-hydroxybenzamide]
